Tested on: MV-4-11 cells
Experiment: Gene expression microarray analysis (Affymetrix PrimeView) and GSEA
Type: cell-based, human
Design: RFU PODN (11730768_x_at) / Fold change /veh PODN (11730768_x_at) / RFU LINC00158 (11744669_a_at) / Fold change /veh LINC00158 (11744669_a_at) / RFU DUSP10 (11751237_a_at) / Fold change /veh DUSP10 (11751237_a_at) / RFU ID3 (11757404_x_at) / Fold change /veh ID3 (11757404_x_at) / RFU PLEKHG5 (11737974_s_at) / Fold change /veh PLEKHG5 (11737974_s_at) / RFU LRRC4B (11730491_at) / Fold change /veh LRRC4B (11730491_at) / RFU GIMAP4 (11747438_a_at) / Fold change /veh GIMAP4 (11747438_a_at) / RFU KRT8 (11758183_x_at) / Fold change /veh KRT8 (11758183_x_at) / RFU CNN1 (11734310_a_at) / Fold change /veh CNN1 (11734310_a_at) / RFU VPS37D (11726825_at) / Fold change /veh VPS37D (11726825_at) / RFU C10orf10 (11716522_x_at) / Fold change /veh C10orf10 (11716522_x_at) / RFU KIR2DL2 /// KIR2DL4 /// KIR2DL5A /// KIR2DL5B /// KIR2DS1 /// KIR2DS2 /// KIR2DS3 /// KIR2DS4 /// KIR3DL3 /// KIR3DL3 /// KIR3DS1 (11738374_at) / Fold change /veh KIR2DL2 /// KIR2DL4 /// KIR2DL5A /// KIR2DL5B /// KIR2DS1 /// KIR2DS2 /// KIR2DS3 /// KIR2DS4 /// KIR3DL3 /// KIR3DL3 /// KIR3DS1 (11738374_at) / RFU C1QL1 (11718748_at) / Fold change /veh C1QL1 (11718748_at) / RFU TMPRSS4 (11747572_a_at) / Fold change /veh TMPRSS4 (11747572_a_at) / RFU HAMP (11756126_x_at) / Fold change /veh HAMP (11756126_x_at) / RFU RNFT2 (11725882_a_at) / Fold change /veh RNFT2 (11725882_a_at) / RFU NR4A2 (11747474_a_at) / Fold change /veh NR4A2 (11747474_a_at) / RFU ABCC12 (11746883_a_at) / Fold change /veh ABCC12 (11746883_a_at) / RFU TMEM136 (11760407_x_at) / Fold change /veh TMEM136 (11760407_x_at) / RFU CLDN22 /// WWC2 (11732394_at) / Fold change /veh CLDN22 /// WWC2 (11732394_at) / RFU HLA-DPB1 (11760878_x_at) / Fold change /veh HLA-DPB1 (11760878_x_at) / RFU SPINT1 (11716480_a_at) / Fold change /veh SPINT1 (11716480_a_at) / RFU GAP43 (11754022_s_at) / Fold change /veh GAP43 (11754022_s_at) / RFU A4GNT (11735810_at) / Fold change /veh A4GNT (11735810_at) / RFU PRB3 (11715151_x_at) / Fold change /veh PRB3 (11715151_x_at) / RFU TUBB4B (11761932_at) / Fold change /veh TUBB4B (11761932_at) / RFU CAPN14 (11732068_a_at) / Fold change /veh CAPN14 (11732068_a_at) / RFU TMCC2 (11721928_a_at) / Fold change /veh TMCC2 (11721928_a_at) / RFU IRGQ (11745062_a_at) / Fold change /veh IRGQ (11745062_a_at) / RFU FAM174B (11720279_a_at) / Fold change /veh FAM174B (11720279_a_at) / RFU TMPRSS4 (11748680_a_at) / Fold change /veh TMPRSS4 (11748680_a_at) / RFU FAM212B (11763350_a_at) / Fold change /veh FAM212B (11763350_a_at) / RFU PLEKHG5 (11743358_a_at) / Fold change /veh PLEKHG5 (11743358_a_at) / RFU ZSCAN30 (11745921_a_at) / Fold change /veh ZSCAN30 (11745921_a_at) / RFU CMKLR1 (11741424_a_at) / Fold change /veh CMKLR1 (11741424_a_at) / RFU LOC101060620 /// MAPK8IP1 (11723275_at) / Fold change /veh LOC101060620 /// MAPK8IP1 (11723275_at) / RFU SPTSSB (11747773_x_at) / Fold change /veh SPTSSB (11747773_x_at) / RFU PRSS12 (11739890_at) / Fold change /veh PRSS12 (11739890_at) / RFU BIN1 (11741810_x_at) / Fold change /veh BIN1 (11741810_x_at) / RFU WNT11 (11732464_a_at) / Fold change /veh WNT11 (11732464_a_at) / RFU C10orf10 (11716521_a_at) / Fold change /veh C10orf10 (11716521_a_at) / RFU C5orf56 (11738089_at) / Fold change /veh C5orf56 (11738089_at) / RFU CYB561 (11721691_x_at) / Fold change /veh CYB561 (11721691_x_at) / RFU ANKRD19P (11752326_a_at) / Fold change /veh ANKRD19P (11752326_a_at) / RFU OR2T12 /// OR2T33 /// OR2T8 (11738714_s_at) / Fold change /veh OR2T12 /// OR2T33 /// OR2T8 (11738714_s_at) / RFU VCAN (11748164_a_at) / Fold change /veh VCAN (11748164_a_at) / RFU JSRP1 (11732532_at) / Fold change /veh JSRP1 (11732532_at) / RFU KRTAP10-11 (11738290_x_at) / Fold change /veh KRTAP10-11 (11738290_x_at) / RFU MYO3A (11730013_a_at) / Fold change /veh MYO3A (11730013_a_at) / RFU EBF3 (11725865_a_at) / Fold change /veh EBF3 (11725865_a_at) / RFU CAMK2N1 (11719241_x_at) / Fold change /veh CAMK2N1 (11719241_x_at) / RFU C5orf56 (11738088_a_at) / Fold change /veh C5orf56 (11738088_a_at) / RFU OLFML3 (11715873_a_at) / Fold change /veh OLFML3 (11715873_a_at) / RFU LOC100653217 /// NTM (11731650_a_at) / Fold change /veh LOC100653217 /// NTM (11731650_a_at) / RFU MAPK11 (11762145_a_at) / Fold change /veh MAPK11 (11762145_a_at) / RFU FIZ1 (11724087_x_at) / Fold change /veh FIZ1 (11724087_x_at) / RFU OASL (11726364_x_at) / Fold change /veh OASL (11726364_x_at) / RFU SOX15 (11748057_x_at) / Fold change /veh SOX15 (11748057_x_at) / RFU CD79A (11719716_a_at) / Fold change /veh CD79A (11719716_a_at) / RFU HIST1H1D (11736915_at) / Fold change /veh HIST1H1D (11736915_at) / RFU CASKIN2 (11723855_a_at) / Fold change /veh CASKIN2 (11723855_a_at) / RFU LOC730098 (11760151_x_at) / Fold change /veh LOC730098 (11760151_x_at) / RFU OR4N2 (11742367_at) / Fold change /veh OR4N2 (11742367_at) / RFU PRRT2 (11749266_a_at) / Fold change /veh PRRT2 (11749266_a_at) / RFU SNX32 (11753110_a_at) / Fold change /veh SNX32 (11753110_a_at) / RFU CDHR5 (11726645_a_at) / Fold change /veh CDHR5 (11726645_a_at) / RFU RCAN1 (11760418_a_at) / Fold change /veh RCAN1 (11760418_a_at) / RFU FAM167A (11723789_a_at) / Fold change /veh FAM167A (11723789_a_at) / RFU FAM26E (11764081_at) / Fold change /veh FAM26E (11764081_at) / RFU ISYNA1 (11749810_s_at) / Fold change /veh ISYNA1 (11749810_s_at) / RFU ACY1 (11761880_at) / Fold change /veh ACY1 (11761880_at) / RFU 11764098_at / Fold change /veh 11764098_at / RFU SAMD14 (11745864_x_at) / Fold change /veh SAMD14 (11745864_x_at) / RFU NPB (11741838_a_at) / Fold change /veh NPB (11741838_a_at) / RFU TMPRSS6 (11731388_a_at) / Fold change /veh TMPRSS6 (11731388_a_at) / RFU KRTAP10-2 (11738614_at) / Fold change /veh KRTAP10-2 (11738614_at) / RFU ARHGAP8 /// PRR5-ARHGAP8 (11727945_x_at) / Fold change /veh ARHGAP8 /// PRR5-ARHGAP8 (11727945_x_at) / RFU KRTAP5-7 /// NADSYN1 (11734609_at) / Fold change /veh KRTAP5-7 /// NADSYN1 (11734609_at) / RFU RASL12 (11751679_a_at) / Fold change /veh RASL12 (11751679_a_at) / RFU CDKN2B (11736163_a_at) / Fold change /veh CDKN2B (11736163_a_at) / RFU PRF1 (11729649_at) / Fold change /veh PRF1 (11729649_at) / RFU, ZNF638 /// ZNF638-IT1 / Fold change vs veh, ZNF638 /// ZNF638-IT1 / RFU, PANK3 / Fold change vs veh, PANK3 / RFU, SH3YL1 / Fold change vs veh, SH3YL1 / RFU, ZEB2 / Fold change vs veh, ZEB2 / RFU, NRIP1 / Fold change vs veh, NRIP1 / RFU, PTTG1IP / Fold change vs veh, PTTG1IP / RFU, CAPN2 / Fold change vs veh, CAPN2 / RFU, MED14 / Fold change vs veh, MED14 / RFU, SNORA58 / Fold change vs veh, SNORA58 / RFU, C1orf63 / Fold change vs veh, C1orf63 / RFU, LRRFIP1 / Fold change vs veh, LRRFIP1 / RFU, NDUFAF7 / Fold change vs veh, NDUFAF7 / RFU, SLC12A2 / Fold change vs veh, SLC12A2 / RFU, IBTK / Fold change vs veh, IBTK / RFU, ESF1 / Fold change vs veh, ESF1 / Fold change vs veh, TMEM50B / RFU, TAOK1 / Fold change vs veh, TAOK1 / RFU, ACBD3 / Fold change vs veh, ACBD3 / RFU, TMA16 / Fold change vs veh, TMA16 / RFU, RWDD3 / Fold change vs veh, RWDD3 / RFU, BCAT1 / Fold change vs veh, BCAT1 / RFU, EDEM3 / Fold change vs veh, EDEM3 / RFU, TMEM33 / Fold change vs veh, TMEM33 / RFU, WDR75 / Fold change vs veh, WDR75 / RFU, AHCTF1 / Fold change vs veh, AHCTF1 / RFU, TFRC / Fold change vs veh, TFRC / RFU, ZDHHC17 / Fold change vs veh, ZDHHC17 / RFU, NOM1 / Fold change vs veh, NOM1 / RFU, ARL8B / Fold change vs veh, ARL8B / RFU, ZBTB11 / Fold change vs veh, ZBTB11 / RFU, TAMM41 / Fold change vs veh, TAMM41 / RFU, KIAA1704 /// LOC100996395 / Fold change vs veh, KIAA1704 /// LOC100996395 / RFU, ING1 / Fold change vs veh, ING1 / RFU, TRMT61B / Fold change vs veh, TRMT61B / RFU, FUBP3 / Fold change vs veh, FUBP3 / RFU, TP53 / Fold change vs veh, TP53 / RFU, TNKS2 / Fold change vs veh, TNKS2 / RFU, ZFP14 / Fold change vs veh, ZFP14 / RFU, ACTR2 / Fold change vs veh, ACTR2 / RFU, PPP3R1 / Fold change vs veh, PPP3R1 / RFU, PIK3R1 / Fold change vs veh, PIK3R1 / RFU, HNRNPA1 / Fold change vs veh, HNRNPA1 / RFU, RNF170 / Fold change vs veh, RNF170 / RFU, ZNF28 / Fold change vs veh, ZNF28 / RFU, RNGTT / Fold change vs veh, RNGTT / RFU, OGT / Fold change vs veh, OGT / RFU, BRD1 / Fold change vs veh, BRD1 / RFU, MARS / Fold change vs veh, MARS / RFU, ZNF655 / Fold change vs veh, ZNF655 / RFU, FAHD1 / Fold change vs veh, FAHD1 / RFU, BDP1 / Fold change vs veh, BDP1 / RFU, LRRCC1 / Fold change vs veh, LRRCC1 / RFU, ARID1A / Fold change vs veh, ARID1A / RFU, ZNF146 / Fold change vs veh, ZNF146 / RFU, ZNF330 / Fold change vs veh, ZNF330 / RFU, GPN3 / Fold change vs veh, GPN3 / RFU, C9orf123 / Fold change vs veh, C9orf123 / RFU, N4BP2L2 / Fold change vs veh, N4BP2L2 / RFU, ARFIP1 / Fold change vs veh, ARFIP1 / RFU, FAM179B / Fold change vs veh, FAM179B / RFU, BCL10 / Fold change vs veh, BCL10 / RFU, UHRF1BP1L / Fold change vs veh, UHRF1BP1L / RFU, BET1 / Fold change vs veh, BET1 / RFU, CNOT2 / Fold change vs veh, CNOT2 / RFU, ZNF268 / Fold change vs veh, ZNF268 / Fold change vs veh, ZNF507 / RFU, DGCR2 / Fold change vs veh, DGCR2 / RFU, WDSUB1 / Fold change vs veh, WDSUB1 / Fold change vs veh, HSP90B1 /// MIR3652 / RFU, ADSS / Fold change vs veh, ADSS / RFU, GK / Fold change vs veh, GK / RFU, ZNF148 / Fold change vs veh, ZNF148 / RFU, TAF9 / Fold change vs veh, TAF9 / RFU, SLC1A5 / Fold change vs veh, SLC1A5 / RFU, SLMO2 / Fold change vs veh, SLMO2 / RFU, ABCC4 / Fold change vs veh, ABCC4 / RFU, LOC101060439 /// RAP1B / Fold change vs veh, LOC101060439 /// RAP1B / RFU, RFX7 / Fold change vs veh, RFX7 / RFU, GTPBP10 / Fold change vs veh, GTPBP10 / RFU, CNEP1R1 / Fold change vs veh, CNEP1R1 / RFU, BIVM-ERCC5 /// ERCC5 / Fold change vs veh, BIVM-ERCC5 /// ERCC5 / RFU, ILF3 / Fold change vs veh, ILF3 / RFU 11762660_at / Fold change /veh 11762660_at / RFU VCAN (11757783_s_at) / Fold change /veh VCAN (11757783_s_at) / RFU DDX43 (11728927_at) / Fold change /veh DDX43 (11728927_at) / RFU KRT8 (11758188_x_at) / Fold change /veh KRT8 (11758188_x_at) / RFU NKD1 (11759106_at) / Fold change /veh NKD1 (11759106_at) / RFU SRD5A1 (11742802_a_at) / Fold change /veh SRD5A1 (11742802_a_at) / RFU TPSAB1 /// TPSB2 (11721975_s_at) / Fold change /veh TPSAB1 /// TPSB2 (11721975_s_at) / RFU GSTM3 (11746129_a_at) / Fold change /veh GSTM3 (11746129_a_at) / RFU IL23R (11737362_x_at) / Fold change /veh IL23R (11737362_x_at) / RFU TMEM51 (11727254_a_at) / Fold change /veh TMEM51 (11727254_a_at) / RFU PIWIL2 (11732686_x_at) / Fold change /veh PIWIL2 (11732686_x_at) / RFU ORM1 (11744905_x_at) / Fold change /veh ORM1 (11744905_x_at) / RFU CCDC152 (11743942_at) / Fold change /veh CCDC152 (11743942_at) / RFU ECM1 (11717891_a_at) / Fold change /veh ECM1 (11717891_a_at) / RFU IL23R (11748794_a_at) / Fold change /veh IL23R (11748794_a_at) / RFU TNFAIP8L3 (11732012_x_at) / Fold change /veh TNFAIP8L3 (11732012_x_at) / RFU MBOAT4 (11741988_at) / Fold change /veh MBOAT4 (11741988_at) / RFU 11764193_at / Fold change /veh 11764193_at / RFU TMEM53 (11763286_at) / Fold change /veh TMEM53 (11763286_at) / RFU MAGEB2 (11727129_at) / Fold change /veh MAGEB2 (11727129_at) / RFU TMEM200A (11744735_a_at) / Fold change /veh TMEM200A (11744735_a_at) / RFU CCDC152 (11751479_a_at) / Fold change /veh CCDC152 (11751479_a_at) / RFU FAM211A (11726209_a_at) / Fold change /veh FAM211A (11726209_a_at) / RFU RGS16 (11746705_a_at) / Fold change /veh RGS16 (11746705_a_at) / RFU VCAN (11755009_s_at) / Fold change /veh VCAN (11755009_s_at) / RFU RHOB (11743442_s_at) / Fold change /veh RHOB (11743442_s_at) / RFU RGS16 (11720943_a_at) / Fold change /veh RGS16 (11720943_a_at) / RFU RGS16 (11720944_at) / Fold change /veh RGS16 (11720944_at) / RFU, VPS4B / Fold change vs veh, VPS4B / RFU, CREB1 / Fold change vs veh, CREB1 / RFU, DNAJC13 / Fold change vs veh, DNAJC13 / RFU, GNAQ / Fold change vs veh, GNAQ / RFU, CDK5R1 / Fold change vs veh, CDK5R1 / RFU, ZRANB3 / Fold change vs veh, ZRANB3 / RFU, CUL4A / Fold change vs veh, CUL4A / RFU, CCNY / Fold change vs veh, CCNY / RFU, UFL1 / Fold change vs veh, UFL1 / RFU, COG3 / Fold change vs veh, COG3 / RFU, DIAPH2 / Fold change vs veh, DIAPH2 / RFU, SKA2 / Fold change vs veh, SKA2 / RFU, AFF3 / Fold change vs veh, AFF3 / RFU, LMF1 / Fold change vs veh, LMF1 / RFU, IPO11 / Fold change vs veh, IPO11 / RFU, DFFB / Fold change vs veh, DFFB / RFU, FOXP1 / Fold change vs veh, FOXP1 / RFU, CARD8 / Fold change vs veh, CARD8 / RFU, STRN3 / Fold change vs veh, STRN3 / RFU, ADK / Fold change vs veh, ADK / RFU, RASSF2 / Fold change vs veh, RASSF2 / RFU, WIPF1 / Fold change vs veh, WIPF1 / RFU, LARP1B / Fold change vs veh, LARP1B / RFU, RASA1 / Fold change vs veh, RASA1 / RFU, RB1 / Fold change vs veh, RB1 / RFU, PPFIA1 / Fold change vs veh, PPFIA1 / RFU, MAT2A / Fold change vs veh, MAT2A / RFU, CCT5 / Fold change vs veh, CCT5 / RFU, WDR92 / Fold change vs veh, WDR92 / RFU, CUX1 / Fold change vs veh, CUX1 / RFU, TTC7A / Fold change vs veh, TTC7A / RFU, TMEM135 / Fold change vs veh, TMEM135 / RFU, DEPTOR / Fold change vs veh, DEPTOR / RFU, CPM / Fold change vs veh, CPM / RFU, DNAJB6 / Fold change vs veh, DNAJB6 / RFU, CACNA2D3 / Fold change vs veh, CACNA2D3 / RFU, DTX4 / Fold change vs veh, DTX4 / RFU, TFCP2 / Fold change vs veh, TFCP2 / RFU, GMCL1 /// GMCL1P1 / Fold change vs veh, GMCL1 /// GMCL1P1 / RFU, AEBP2 / Fold change vs veh, AEBP2 / RFU, SNHG1 /// SNORD22 /// SNORD25 /// SNORD26 /// SNORD27 /// SNORD28 /// SNORD29 /// SNORD31 / Fold change vs veh, SNHG1 /// SNORD22 /// SNORD25 /// SNORD26 /// SNORD27 /// SNORD28 /// SNORD29 /// SNORD31 / Fold change (Aza/veh), C12orf56 (ProbeSet 11735607_a_at) / Fold change (ACY-1035/veh), C12orf56 (ProbeSet 11735607_a_at) / Fold change (Aza/veh), FGFR1OP (ProbeSet 11751329_s_at) / Fold change (ACY-1035/veh), FGFR1OP (ProbeSet 11751329_s_at) / Fold change (Aza/veh), VPS36 (ProbeSet 11739960_a_at) / Fold change (ACY-1035/veh), VPS36 (ProbeSet 11739960_a_at) / RFU SYPL1 (11715823_x_at) / Fold change /veh SYPL1 (11715823_x_at) / RFU IGFBP7 (11715501_s_at) / Fold change /veh IGFBP7 (11715501_s_at) / RFU REEP3 (11722064_at) / Fold change /veh REEP3 (11722064_at) / RFU IGLL1 (11728026_x_at) / Fold change /veh IGLL1 (11728026_x_at): dose or concentration left out as unconfirmed
Conditions: gene VPS36; Azacitidine vs DMSO; LIST F

In the case of Nc1ncn([C@@H]2O[C@H](CO)[C@@H](O)[C@H]2O)c(=O)n1 [azacitidine], the “Fold change (Aza/veh), VPS36 (ProbeSet 11739960_a_at)” value is reported as 1.14.

From paper PMC5218480 (PLoS ONE, 2017)
